This is an account of results in PMC9574860, “Chemical Toolkit for PARK7: Potent, Selective, and High-Throughput” (Journal of Medicinal Chemistry, 2022).

Test [1] has as its target T1, PARK7 (Homo sapiens, UniProt Q99497).
T1 sequence (Q99497 1-189): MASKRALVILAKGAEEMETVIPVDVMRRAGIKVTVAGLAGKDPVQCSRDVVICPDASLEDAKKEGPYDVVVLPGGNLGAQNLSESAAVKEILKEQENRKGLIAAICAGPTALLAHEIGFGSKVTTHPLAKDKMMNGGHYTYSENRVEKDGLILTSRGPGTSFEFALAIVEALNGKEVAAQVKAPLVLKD
As to the kind of experiment: DiFMUAc PARK7 activity assay. It is filed as biochemical. Details: GST (N, cleaved yes); made in house; host or cells: E. coli BL21(DE3) Rosetta2. Conditions: PARK7 0.1 μM, DiFMUAc 300 μM; for inhibition at 12.5 µM: 12.5 µM compound, read-out: DiFMuAc assay %Inhibiton (12.5 µM); for inhibition at 12.5 µM / inhibition at 37.5 µM / inhibition at 100 µM: 2 h preincubation; for inhibition at 37.5 µM: 37.5 µM compound, read-out: DiFMuAc assay %Inhibiton (37.5 µM); for inhibition at 100 µM: 100 µM compound, read-out: DiFMuAc assay %Inhibiton (100 µM). Here is the method:
Compounds were transferred using a Labcyte Echo550 acoustic dispenser to obtain a 12-point serial dilution of 0.001 to 100 μM. Next, PARK7 (15 μL, final concentration of 0.1 μM) was dispensed with a Biotek MultiFlowFX liquid dispenser and incubated for 1 h, followed by dispensing the substrate DiFMUAc (5 μL, final concentration of 300 μM). The fluorescence intensity (FI) signal was monitored with a BMG Labtech PHERAstar plate reader (λex/em 350/450 nm) for 1 h.
The validation was performed in the PBS buffer with a reaction volume of 20 μL per well in triplicate. […] Next, PARK7 (15 μL, final concentration 0.1 μM) was dispensed with a Biotek MultiFlowFX liquid dispenser and incubated for 2 h, followed by dispensing the substrate DiFMUAc (5 μL, final concentration 300 μM). The FI signal was monitored with a BMG Labtech PHERAstar plate reader (λex/em 350/450 nm) for 1 h. The increase of FI signal compared with reference controls was used to calculate the remaining enzyme activity. The inhibition percentage of these 22 compounds was plotted as a heatmap using GraphPad Prism 9.0.1 software. Color gradients indicate inhibition percentage, no inhibiton (white) and full inhibition (blue).

The target in test [2] is T1, PARK7. As to the kind of experiment: FP assay with Rhodamine110 probe JYQ-107 (IC50 and hit validation). It is filed as binding. Details: GST (N, cleaved yes); made in house; host or cells: E. coli BL21(DE3) Rosetta2. Conditions: PARK7 0.2 μM, 1 h preincubation, JYQ-107 20 nM; for inhibition at 12.5 µM: 12.5 µM compound, read-out: FP assay %Inhibiton (12.5 µM); for inhibition at 37.5 µM: 37.5 µM compound, read-out: FP assay %Inhibiton (37.5 µM); for inhibition at 100 µM: 100 µM compound, read-out: FP assay %Inhibiton (100 µM). Here is the method:
The assay was performed using the conditions as described above with a reaction volume of 20 μL per well in triplicate. Stock solutions of JYQ-88 of 1 and 0.1 mM were prepared. […] The FP signal was monitored with a BMG Labtech PHERAstar plate reader (λex/em 480/520 nm) for 2 h.
The validation was performed using the conditions as described above with a reaction volume of 20 μL per well in triplicate. […] The FP signal was monitored with a BMG Labtech PHERAstar plate reader (λex/em 480/520 nm) for 2 h. The relative loss of FP signal compared with reference controls was used to calculate the remaining enzyme activity. Inhibition percentage of these 40 compounds was plotted as a heatmap using GraphPad Prism 9.0.1 software. Color gradients indicate inhibition percentage, no inhibiton (white) and full inhibition (blue).

The molecule `O=C1C(=O)N(CCc2ccccc2)c2ccc(F)cc21` [STK793590, reference compound] came in with an IC50 at PARK7 [1] (DiFMUAc assay, 1 h preincubation) of 190 nM.
On to `CCc1ccc(NC(=O)CCl)cc1` [Z56886400], for which, on PARK7 [2], the inhibition at 12.5 µM worked out at 90.8%, the inhibition at 37.5 µM is 95.6% and the inhibition at 100 µM was determined as 100%.
Take `CCN(c1ccc(NC(=O)CCl)cc1)C(C)C` [Z56896170]: on PARK7 [2], the inhibition at 12.5 µM worked out at 100%, the inhibition at 37.5 µM turned out to be 100% and the inhibition at 100 µM stood at 100%. Besides, on PARK7 [1], the inhibition at 12.5 µM amounted to 81.4%, the inhibition at 37.5 µM was 94.9% and the inhibition at 100 µM is 97.4%.
As to `O=C(CCl)Nc1ccc(SC(F)F)cc1` [Z56896308], at PARK7 [2], the inhibition at 12.5 µM was found to be 62.4%, the inhibition at 37.5 µM came to 65.9% and the inhibition at 100 µM was determined as 100%.
In the case of `CC(C)(C)c1ccc(NC(=O)CCl)cc1` [Z56922153], at PARK7 [2], the inhibition at 12.5 µM is 100%, the inhibition at 37.5 µM is 100% and the inhibition at 100 µM came out at 100%. Also, at PARK7 [1], the inhibition at 12.5 µM stood at 87.1%, the inhibition at 37.5 µM came out at 94.2% and the inhibition at 100 µM is 100%.
For `COc1ccccc1CN(C)C(=O)CCl` [Z57051055], at PARK7 [2], the inhibition at 12.5 µM worked out at 68.3%, the inhibition at 37.5 µM was 66.1% and the inhibition at 100 µM came out at 100%.
For the molecule `CC1CCC(N(C)C(=O)CCl)CC1` (stereo not shown) [Z85923410], on PARK7 [2], the inhibition at 12.5 µM came to 85.7%, the inhibition at 37.5 µM worked out at 100% and the inhibition at 100 µM was 100%. Further, on PARK7 [1], the inhibition at 12.5 µM stood at 81.8%, the inhibition at 37.5 µM was 94.6% and the inhibition at 100 µM came to 97.4%.
`CC(c1ccccc1)N(C)C(=O)CCl` (stereo not shown) [Z86023354]: at PARK7 [2], the inhibition at 12.5 µM turned out to be 88.4%, the inhibition at 37.5 µM was 89.7% and the inhibition at 100 µM was found to be 100%.
Turning to `O=C(CCl)Nc1ccc(N2CCCCCC2)cc1` [Z190662892], at PARK7 [2], the inhibition at 12.5 µM came out at 84.2%, the inhibition at 37.5 µM stood at 85.1% and the inhibition at 100 µM worked out at 100%.
In the case of `CC1CCc2ccccc2N1C(=O)CCl` (stereo not shown) [Z220564178], on PARK7 [2], the inhibition at 12.5 µM is 100%, the inhibition at 37.5 µM came out at 100% and the inhibition at 100 µM is 100%. In addition, on PARK7 [1], the inhibition at 12.5 µM is 80.5%, the inhibition at 37.5 µM stood at 79.6% and the inhibition at 100 µM was found to be 91.4%.
Turning to `Cc1cc(C(=O)CCl)c(C)[nH]1` [Z235333089], on PARK7 [2], the inhibition at 12.5 µM was determined as 11.4%, the inhibition at 37.5 µM was determined as 16.2% and the inhibition at 100 µM was 54.4%.
For `CC1=NOC(=O)C1CC(=O)O` (stereo not shown) [Z367451146], on PARK7 [2], the inhibition at 12.5 µM is 100%, the inhibition at 37.5 µM came to 100% and the inhibition at 100 µM amounted to 100%. On PARK7 [1], the inhibition at 12.5 µM amounted to 92.2%, the inhibition at 37.5 µM stood at 100% and the inhibition at 100 µM amounted to 100%.
As to `NC(=O)c1csc(C(=O)CCl)c1` [Z802671642], at PARK7 [2], the inhibition at 12.5 µM was determined as 23.8%, the inhibition at 37.5 µM came out at 25.8% and the inhibition at 100 µM turned out to be 68%.
Regarding `CC(c1ccc(Cl)cc1)N(C)C(=O)CCl` (stereo not shown) [Z1562123076], at PARK7 [2], the inhibition at 12.5 µM was 79.5%, the inhibition at 37.5 µM was determined as 81.3% and the inhibition at 100 µM was determined as 100%.

A word on the IC50: it is the concentration that gives 50% inhibition. Low readings indicate greater potency, high ones weaker potency.
